According to patent US10870647B2, “Imidazopyridine derivative, method for preparing same, and pharmaceutical composition containing same as active ingredient for preventing or treating cancer” (DAEGU-GYEONGBUK MEDICAL INNOVATION FOUNDATION, priority 2016, dated 2020):

Assays:
Experiment in all cases: Kinase selectivity, scanMAX Kinase assay panel (DiscoverX), % control at 1 uM
Type in all cases: binding
[1] = target: T1, scanMAX Kinase assay panel (Homo sapiens, UniProt O15264); settings: p38-delta; 1 uM; read-out: Percent Control (%)
T1 construct: purchased DiscoverX
T1 sequence (O15264 1-365): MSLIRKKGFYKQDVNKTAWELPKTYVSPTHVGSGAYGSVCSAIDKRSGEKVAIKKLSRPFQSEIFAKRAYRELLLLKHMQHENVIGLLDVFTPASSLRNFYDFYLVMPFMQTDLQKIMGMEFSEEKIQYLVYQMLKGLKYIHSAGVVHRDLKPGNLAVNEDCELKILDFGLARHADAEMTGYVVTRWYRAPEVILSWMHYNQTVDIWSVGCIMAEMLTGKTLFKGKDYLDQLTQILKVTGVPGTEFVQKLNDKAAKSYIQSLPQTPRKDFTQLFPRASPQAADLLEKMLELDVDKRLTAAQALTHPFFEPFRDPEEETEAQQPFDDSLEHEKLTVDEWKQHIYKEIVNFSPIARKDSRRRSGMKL
How it was run: (§1)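 Compounds were tested at 1 uM in DMSO against each enzyme in the panel. Percent control was calculated as (compound − positive control)/(negative control − positive control) × 100, and a compound was scored active on a kinase when this value fell below 35.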

[2] = target: T2, scanMAX Kinase assay panel (Homo sapiens, UniProt O14976); settings: GAK; 1 uM; read-out: Percent Control (%)
T2 construct: purchased DiscoverX
T2 sequence (O14976 1-1311): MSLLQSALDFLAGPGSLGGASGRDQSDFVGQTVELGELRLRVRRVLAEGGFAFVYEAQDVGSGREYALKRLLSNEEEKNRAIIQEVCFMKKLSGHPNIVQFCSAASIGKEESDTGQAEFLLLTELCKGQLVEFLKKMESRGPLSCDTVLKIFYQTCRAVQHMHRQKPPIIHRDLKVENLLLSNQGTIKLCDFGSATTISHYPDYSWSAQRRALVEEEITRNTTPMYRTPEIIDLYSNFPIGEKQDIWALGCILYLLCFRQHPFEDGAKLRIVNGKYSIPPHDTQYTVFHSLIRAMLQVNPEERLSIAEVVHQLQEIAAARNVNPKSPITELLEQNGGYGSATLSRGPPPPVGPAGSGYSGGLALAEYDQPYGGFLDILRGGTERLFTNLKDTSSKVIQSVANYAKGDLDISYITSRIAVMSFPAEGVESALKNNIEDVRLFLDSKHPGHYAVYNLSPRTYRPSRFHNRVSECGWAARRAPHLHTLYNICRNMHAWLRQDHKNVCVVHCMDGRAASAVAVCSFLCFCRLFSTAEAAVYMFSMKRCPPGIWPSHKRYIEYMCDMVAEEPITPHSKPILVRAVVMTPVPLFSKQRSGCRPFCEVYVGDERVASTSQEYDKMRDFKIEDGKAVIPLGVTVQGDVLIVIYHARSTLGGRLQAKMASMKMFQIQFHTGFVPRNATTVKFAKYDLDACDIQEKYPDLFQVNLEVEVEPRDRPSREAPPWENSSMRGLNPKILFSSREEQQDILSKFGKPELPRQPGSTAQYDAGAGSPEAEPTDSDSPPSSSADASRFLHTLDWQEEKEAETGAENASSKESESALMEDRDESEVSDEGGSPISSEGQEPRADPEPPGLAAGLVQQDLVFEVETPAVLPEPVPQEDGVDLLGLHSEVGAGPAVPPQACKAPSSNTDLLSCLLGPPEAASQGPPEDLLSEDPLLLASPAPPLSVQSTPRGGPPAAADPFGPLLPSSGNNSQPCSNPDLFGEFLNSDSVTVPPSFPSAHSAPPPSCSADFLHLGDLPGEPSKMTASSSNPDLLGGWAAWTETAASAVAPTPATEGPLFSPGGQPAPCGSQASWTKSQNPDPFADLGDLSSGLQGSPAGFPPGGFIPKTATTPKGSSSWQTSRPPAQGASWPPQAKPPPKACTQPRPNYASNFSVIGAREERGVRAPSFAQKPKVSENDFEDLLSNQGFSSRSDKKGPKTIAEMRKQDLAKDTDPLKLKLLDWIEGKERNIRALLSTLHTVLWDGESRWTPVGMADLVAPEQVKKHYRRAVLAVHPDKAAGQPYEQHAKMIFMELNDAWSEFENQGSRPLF
How it was run: as §1

[3] = target: T3, scanMAX Kinase assay panel (Homo sapiens, UniProt Q92630); settings: DYRK2; 1 uM; read-out: Percent Control (%)
T3 construct: purchased DiscoverX
T3 sequence (Q92630 1-601): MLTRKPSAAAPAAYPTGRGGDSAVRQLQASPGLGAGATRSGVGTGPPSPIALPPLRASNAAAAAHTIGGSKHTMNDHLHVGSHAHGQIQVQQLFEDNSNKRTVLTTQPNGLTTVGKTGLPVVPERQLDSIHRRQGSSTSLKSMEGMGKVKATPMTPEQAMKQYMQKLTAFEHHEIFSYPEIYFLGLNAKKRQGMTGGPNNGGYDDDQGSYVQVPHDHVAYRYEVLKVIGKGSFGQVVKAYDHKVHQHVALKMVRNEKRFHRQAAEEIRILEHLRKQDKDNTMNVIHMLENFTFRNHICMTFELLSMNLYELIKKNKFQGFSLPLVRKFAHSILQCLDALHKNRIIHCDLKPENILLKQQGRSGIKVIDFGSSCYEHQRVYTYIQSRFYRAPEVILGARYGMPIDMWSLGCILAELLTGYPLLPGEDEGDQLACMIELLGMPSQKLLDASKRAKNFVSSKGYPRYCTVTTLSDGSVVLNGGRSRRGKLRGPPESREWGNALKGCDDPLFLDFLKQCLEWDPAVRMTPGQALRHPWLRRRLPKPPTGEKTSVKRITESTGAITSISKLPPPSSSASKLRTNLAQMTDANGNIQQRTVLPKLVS
How it was run: as §1

[4] = target: T4, scanMAX Kinase assay panel (Homo sapiens, UniProt Q5VT25); settings: MRCKA; 1 uM; read-out: Percent Control (%)
T4 construct: purchased DiscoverX
How it was run: as §1

T4 sequence (Q5VT25 whole entry): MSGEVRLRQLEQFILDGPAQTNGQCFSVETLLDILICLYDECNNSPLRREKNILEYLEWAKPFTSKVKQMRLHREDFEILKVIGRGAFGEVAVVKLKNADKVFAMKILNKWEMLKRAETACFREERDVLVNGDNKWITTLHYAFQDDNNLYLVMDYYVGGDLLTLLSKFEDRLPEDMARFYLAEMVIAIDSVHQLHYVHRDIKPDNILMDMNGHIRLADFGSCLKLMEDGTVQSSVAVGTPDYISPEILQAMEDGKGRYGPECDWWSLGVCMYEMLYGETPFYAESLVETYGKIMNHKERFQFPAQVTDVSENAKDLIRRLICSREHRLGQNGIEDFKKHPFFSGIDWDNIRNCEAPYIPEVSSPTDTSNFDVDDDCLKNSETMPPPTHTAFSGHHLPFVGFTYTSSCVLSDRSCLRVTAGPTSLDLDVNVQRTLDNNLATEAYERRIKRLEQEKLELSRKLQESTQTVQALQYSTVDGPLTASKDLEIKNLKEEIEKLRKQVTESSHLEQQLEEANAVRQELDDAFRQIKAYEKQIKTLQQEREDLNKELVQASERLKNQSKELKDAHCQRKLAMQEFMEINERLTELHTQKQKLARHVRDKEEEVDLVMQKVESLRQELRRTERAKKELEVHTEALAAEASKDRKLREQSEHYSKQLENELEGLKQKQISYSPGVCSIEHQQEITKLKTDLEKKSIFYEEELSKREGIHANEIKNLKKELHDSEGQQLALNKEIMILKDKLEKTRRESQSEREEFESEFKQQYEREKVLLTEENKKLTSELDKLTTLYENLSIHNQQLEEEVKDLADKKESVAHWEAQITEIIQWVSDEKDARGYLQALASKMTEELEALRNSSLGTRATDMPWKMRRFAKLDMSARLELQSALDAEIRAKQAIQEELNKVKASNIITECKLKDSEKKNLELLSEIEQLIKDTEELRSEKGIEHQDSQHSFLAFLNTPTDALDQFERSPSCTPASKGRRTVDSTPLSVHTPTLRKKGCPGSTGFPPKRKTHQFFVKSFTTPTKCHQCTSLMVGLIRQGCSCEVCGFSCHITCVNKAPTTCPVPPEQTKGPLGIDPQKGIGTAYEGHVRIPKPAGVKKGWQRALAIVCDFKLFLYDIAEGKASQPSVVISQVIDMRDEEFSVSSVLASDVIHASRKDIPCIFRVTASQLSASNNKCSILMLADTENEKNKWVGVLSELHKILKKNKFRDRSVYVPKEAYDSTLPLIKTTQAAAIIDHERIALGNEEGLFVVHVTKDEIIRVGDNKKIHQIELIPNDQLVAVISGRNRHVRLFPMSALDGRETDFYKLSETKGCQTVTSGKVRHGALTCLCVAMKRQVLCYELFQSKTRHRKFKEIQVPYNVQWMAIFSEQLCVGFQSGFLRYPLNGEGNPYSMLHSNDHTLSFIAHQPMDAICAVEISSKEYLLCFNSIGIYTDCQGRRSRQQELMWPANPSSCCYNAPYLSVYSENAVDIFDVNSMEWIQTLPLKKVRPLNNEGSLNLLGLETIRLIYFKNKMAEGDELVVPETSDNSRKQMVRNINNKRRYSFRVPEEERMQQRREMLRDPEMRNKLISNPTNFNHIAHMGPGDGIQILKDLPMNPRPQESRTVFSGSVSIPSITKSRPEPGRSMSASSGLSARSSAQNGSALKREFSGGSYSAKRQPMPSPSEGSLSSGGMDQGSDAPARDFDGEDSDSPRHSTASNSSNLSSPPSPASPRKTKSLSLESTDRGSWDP

Row | SMILES | remaining binding at 1 µM [1] [%] | remaining binding at 1 µM [2] [%] | remaining binding at 1 µM [3] [%] | remaining binding at 1 µM [4] [%]
1 | Cc1ccc(NC(=O)C2(C(=O)Nc3ccc(F)cc3)CC2)cc1C#Cc1cnc2c(Nc3cnn(C(C)C)c3)cccn12 [Example 78] | 100 | 100 | 94 | 100
2 | Cc1cn(-c2cc(NC(=O)c3ccc(C)c(C#Cc4cnc5c(Nc6cnn(C)c6)cccn45)c3)cc(C(F)(F)F)c2)cn1 [Example 12, 4-methyl-N-(3-(4-methyl-1H-imidazol-1-yl)-5-(trifluoromethyl)phenyl)-3-((8-((1-methyl-1H-pyrazol-4-yl)amino)imidazo[1,2-a]pyridin-3-yl)ethynyl)benzamide] | 78 | 87 | 91 | 91
3 | Cc1ccc(C(=O)Nc2ccc(CN3CCN(C)CC3)c(C(F)(F)F)c2)cc1C#Cc1cnc2c(Nc3cnn(C)c3)cccn12 [Example 1, 4-methyl-3-((8-((1-methyl-1H-pyrazol-4-yl)amino)imidazo[1,2-a]pyridin-3-yl)ethynyl)-N-(4-((4-methylpiperazin-1-yl)methyl)-3-(trifluoromethyl)phenyl)benzamide] | 16 | 7 | 75 | 96
